Reference: patent publication US20240100062A1, “Methods of Treatment With an Iboga Alkaloid” (priority 2022, published 2024)
Values joined by “and” are separate entries in the source; they are usually repeats but may differ in a detail not shown here. Equal entries are not always repeated.

Columns and labels:
[1] = system: male veterans with a history of TBI; assay: Pseudo-continuous arterial spin labeling MRI, cerebral blood flow (Example 3); type: in vivo, human; details: paired t-test across baseline, first post-treatment scan and 1 month post-treatment; p<0.001
Description: Arterial spin labeling (ASL) MR was used to measure cerebral blood flow in some of the subjects of the subjects enrolled in the study of Example 1. As described in Example 3, pseudo-continuous ASL (pcASL) was performed on the subject at baseline, about 1 week after treatment, and one-month after treatment. […] A first metric of interest was change in net quantity (mL/100 g tissue/min) of blood entering different regions of the brain. Images of the left posterior orbital gyrus, left anterior insula, left and right cerebral white matter at baseline and 1-week post treatment (images not shown) were analyzed and compared. […] A paired t-test across 3 time points—baseline (pre-treatment), 1 week post-treatment, and 1 month post-treatment—was employed.
A second metric of interest was regression between change in clinical scores versus change in relative cerebral blood perfusion from baseline to one-month post treatment. Multiple regression with clinical scores at baseline and one-month post treatment was used. […]
A first metric of interest was change in net quantity (mL/100 g tissue/min) of blood entering different regions of the brain. Images of the left posterior orbital gyrus, left anterior insula, left and right cerebral white matter at baseline and 1-2 days post treatment (images not shown) were analyzed and compared. […]

[2] = system: special operations veterans; assay: Delis-Kaplan Executive Function System (D-KEFS), Example 1 study; type: in vivo, human
[3] = system: special operations veterans; assay: Predicted brain age from MRI (brain age model); type: in vivo, human
Excerpt: A predictive model of normal aging defined using machine learning in healthy individuals, based on magnetic resonance imaging-derived estimates of gray matter and white matter (Id.) was applied to the MRI images from the subjects enrolled in the study of Example 1. […] There was a significant reversal of brain age from baseline to one month after treatment. The mean decrease in brain age was 1.3 years (corrected p=0.03).
At baseline, the brain age estimate for the 24 subjects was 40.89 years. […] The average decrease in brain age from baseline one month after treatment was 1.4 years.

[4] = system: special operations veterans; assay: Brief Visuospatial Memory Test-Revised (BVMT-R), Example 1 study; type: in vivo, human
[5] = system: special operations veterans; assay: Resting-state fMRI functional connectivity (Example 2); type: in vivo, human; details: within a few days after treatment; persisted to one-month post treatment; 5000 pairs tested
Excerpt: The human brain is a series of well-organized and optimized series of efficient networks. Disease states can be characterized as abnormalities or inefficiencies in the networks and/or the global organization. Resting-state functional connectivity is one method to characterize disease states and effects of interventions. The functional connectivity networks evaluated in a region of interest in the brain included those identified in Table 2-1 of Example 2.
The subjects were asked to clear their mind of any particular thoughts in order to capture the brain at rest or in its ‘default’ state. An a priori region of interest was determined for analysis and 5000 functional connectivity pairs were tested. The underlying alteration in brain patterns (connectivity) due to an intervention was evaluated.

[6] = system: special operations veterans; assay: Neuropsychological battery overall, Example 1 study; type: in vivo, human; details: post treatment time points
Excerpt: A summary of the results is in Table 1 and Table 1-6 of Example 1. […] In Table 1, neuropsychological test scores are represented as a T score (mean of 50, SD of 10). Unless stated otherwise, a higher score represents better performance.
Neuropsychological testing of the enrolled subjects was designed to examine abilities over several domains of cognitive functioning, including estimated intelligence quotient (IQ), verbal fluency, working memory (visual and auditory), long term memory (visual and auditory), processing speed, sustained attention, problem solving, ability to perceive patterns, executive functioning, such as ability to hold and manipulate or update information in the head, inhibition, ability to organize, plan, and develop solutions to problems. In addition, assessments examining cognitive abilities over several domains of functioning were done to evaluate the safety of ibogaine use. […]

cortical neuron = details: in vitro; cited from earlier work
[7] = system: special operations veterans; set-up: species or system human; details: in vivo
BDNF and GDNF = details: cited from earlier work
[8] = system: special operations veterans; assay: Clinician rated psychiatric assessments (PTSD, depression, anxiety) overall, Example 1 study; type: in vivo, human; details: following treatment; sustained at one-month follow-up
Description: The safety and efficacy of ibogaine treatment in combination with a cardioprotective agent was evaluated in subjects with a history of TBI. At baseline, study participants were experiencing clinically significant levels of disability, PTSD, depression, and anxiety. […] Indeed, disability measures continued to improve, and psychiatric symptom remission and response rates one-month post-treatment remained high.
Clinician administered scales included CAPS-5 (Clinician-administered PTSD Scale for DSM-5), which is a gold standard assessment of PTSD symptom severity; MADRS (Montgomery-Asberg Depression Rating Scale), a measure for depressive symptom severity; and Hamilton-Anxiety Rating Scale (HAM-A) (Shear, M. K. et al., Depress. Anxiety 13, 166-178 (2001)) a measure for anxiety symptom severity; SCID-5 (Structured Clinical Interview for DSM-5) Overview for a historical and environmental context of symptom presentation; MINI DSM-5 (Mini International Neuropsychiatric Interview from DSM-5) for a structured psychodiagnostics assessment; BAT-L (Boston Assessment of TBI—Lifetime) for a lifetime history of TBI and blast exposure; and Ohio State University TBI Identification Method (Short Form) for a lifetime history of TBI. MADRS testing provides an indication of depressive symptoms, CAPS-5 provides an indication of PTSD and SIGH-A provides an indication of anxiety. […]

[9] = system: special operations veterans; assay: Lag projection analysis of BOLD fMRI; type: in vivo, human; details: baseline vs about four days post treatment; left orbitofrontal gyrus (lateral and anterior) and inferior frontal gyrus (orbital and triangular); fwec p<0.001
Description: fMRI data was also analyzed to inspect activity patterns as a function of time. A lag projection analysis measures temporal dynamics of blood oxygen level-dependent (BOLD) fMRI (Mitra et al., PNAS, E2235-E2244, 2015). Directed flow transfer of information is analyzed by comparing lag-correlation shift between voxel pairs. The average lag structure of a voxel indicates relative earliness or lateness in the brain, as a measure of whether the region is a source or sink of information. A paired T-test of fMRI images at baseline and about four days post treatment was done. […] These regions are involved in language formation, response inhibition and regulating goal-directed behavior. Slowing may reflect sustained processing and influence over the brain across long time scales.

## CCC1CC2CC3c4[nH]c5ccc(OC)cc5c4CCN(C2)C13 (centres unmarked) [ibogaine, Ibogaine]
[1]
  Change in absolute cerebral blood flow: No significant changes
[2]; 1-mo. post, baseline 57.0 ± 11.7, p(FDR) <0.001
  Phonemic Fluency (D-KEFS Verbal Fluency), mean ± SD: 64.0 ± 10.1 T score
[2]; baseline vs 1-month post
  Cognitive Flexibility Composite, D: 0.74
  Cognitive Inhibition (D-KEFS Color/Word Interference, Condition 3), D: 0.62
  Phonemic Fluency (D-KEFS Verbal Fluency), D: 1.11
  Problem Solving (D-KEFS TT, Total Achievement Score), D: 0.44
  Semantic Fluency (D-KEFS Verbal Fluency), D: 0.24
[2]; baseline vs 1-wk post
  Cognitive Flexibility Composite, D: 0.43
  Phonemic Fluency (D-KEFS Verbal Fluency), D: 0.52
  Problem Solving (D-KEFS TT, Total Achievement Score), D: 0.49
  Semantic Fluency (D-KEFS Verbal Fluency), D: 0.02
[2]; post treatment time points
  Language (semantic fluency) performance change: No significant performance changes
[3]; baseline to one month after treatment, corrected p=0.03 (FIG. 9A)
  Mean decrease in brain age: 1.3 years
[3]; one-month post treatment (FIG. 9D)
  Estimated brain age compared to accelerated intermittent theta burst stimulation (aiTBS): provided a reducing in estimated brain age one-month post treatment compared to aiTBS
[3]; weights .5-.5-1, Sig 0.008, 95% 0.352 to 2.087
  Brain age contrast Estimate, Baseline & 1 wk. vs 1 mo.: 1.220 years
[4]; baseline vs 1-month post
  Visuospatial Memory (BVMT-R), D: 0.32
[4]; baseline vs 1-wk post
  Visuospatial Memory (BVMT-R), D: 0.50
[4]; both timepoints
  Visual memory improvement: significant improvement in visual memory at both timepoints
[5]
  Reorganization of functional connection pairs in the brain networks, number of pairs: 22
[6]
  Declines across performance domains: No declines were noted across any performance domain
Cortical neuron
  Cortical neuron dendritic arbor complexity: increases cortical neuron dendritic arbor complexity
[7]
  Detection (CPT-3 Detection), D: 0.86
  Reaction Time (CPT-3 Reaction Time), D: 0.52 and 0.29
  Reaction Time (CPT-3 Reaction Time), mean ± SD: 44.1 ± 6.8 T score and 46.4 ± 8.1 T score
  Slowing of reaction time, D: 0.29-0.52
  Sustained Attention (CPT-3 Hit Reaction Time Block Change), mean ± SD: 50.8 ± 7.9 T score and 51.2 ± 7.7 T score
BDNF and GDNF
  Transcription of neurotrophic factors including BDNF and GDNF: increases the transcription of neurotrophic factors
[8]
  Cohen's D on clinician rated psychiatric assessments: > 2
[9]
  Lag structure change (BOLD fMRI): relative slowing
